Reference: ChEMBL document CHEMBL3639191, “Benzimidazole derivatives: preparation and pharmaceutical applications” (2013)

Legend:
Histone deacetylase 8 = biological target: T1, Histone deacetylase 8 (Homo sapiens, UniProt Q9BY41); test: (§1) Enzyme Assay: The assay have been carried out in a 96 well format and the BIOMOL using a fluorescent-based HDAC activity assay.
T1 sequence (Q9BY41 whole entry): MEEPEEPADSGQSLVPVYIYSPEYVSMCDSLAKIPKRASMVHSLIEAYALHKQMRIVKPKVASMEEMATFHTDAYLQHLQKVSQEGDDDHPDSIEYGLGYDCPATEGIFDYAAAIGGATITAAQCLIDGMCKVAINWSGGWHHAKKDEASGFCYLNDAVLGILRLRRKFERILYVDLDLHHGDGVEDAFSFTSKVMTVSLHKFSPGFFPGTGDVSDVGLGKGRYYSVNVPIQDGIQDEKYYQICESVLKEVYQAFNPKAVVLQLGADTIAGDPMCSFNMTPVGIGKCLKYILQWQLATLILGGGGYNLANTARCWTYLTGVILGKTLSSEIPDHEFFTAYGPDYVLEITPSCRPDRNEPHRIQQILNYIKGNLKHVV

Histone deacetylase 1 = Histone deacetylase 1 (Homo sapiens, UniProt Q13547); test: as §1
Histone deacetylase 1, sequence (Q13547 whole entry): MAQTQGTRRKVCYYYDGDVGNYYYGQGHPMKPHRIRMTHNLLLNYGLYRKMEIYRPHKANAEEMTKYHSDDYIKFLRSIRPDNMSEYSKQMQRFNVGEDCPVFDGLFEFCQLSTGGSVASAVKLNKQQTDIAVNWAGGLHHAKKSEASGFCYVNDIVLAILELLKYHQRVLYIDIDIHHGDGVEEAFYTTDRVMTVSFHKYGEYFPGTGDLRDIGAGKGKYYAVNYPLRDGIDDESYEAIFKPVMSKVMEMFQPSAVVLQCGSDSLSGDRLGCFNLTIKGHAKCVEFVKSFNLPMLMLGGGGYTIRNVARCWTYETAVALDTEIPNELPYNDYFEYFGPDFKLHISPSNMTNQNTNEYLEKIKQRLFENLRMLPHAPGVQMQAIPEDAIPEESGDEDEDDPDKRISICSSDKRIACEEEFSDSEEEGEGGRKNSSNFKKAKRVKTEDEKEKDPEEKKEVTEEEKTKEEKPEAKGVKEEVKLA

| SMILES | IC50 (Histone deacetylase 8) [nM] | IC50 (Histone deacetylase 1) [nM] |
| --- | --- | --- |
| O=C(/C=C/c1ccc2c(c1)nc(C1CCCCC1)n2CCCO)NO | 203 | 3240 |
| COc1ccc(-c2nc3cc(/C=C/C(=O)NO)ccc3n2CC(O)CO)cc1 (stereo unspecified) | 262 | 1380 |
| COc1cc(-c2nc3cc(/C=C/C(=O)NO)ccc3n2C)ccc1OCc1ccccc1 | 1710 | 1370 |
